{
  "source": "patent US20100168120A1",
  "about": "“SALTS OF PYRIDAZINE COMPOUNDS” (NEUROMEDIX INC., priority 2006, published 2010)",
  "key": {"NO production": {"test_system": "NO production", "experiment": "Inhibition of NO production (glial activation)", "format": "cell-based", "conditions": "read-out: NO, concentration required for 50% inhibition"}, "[1]": {"experiment": "logP by octanol/water partition coefficient"}, "IL-1β production": {"test_system": "IL-1β production", "experiment": "Inhibition of IL-1β production (glial activation)", "format": "cell-based", "conditions": "in words"}, "[2]": {"experiment": "Chemical stability in water, dilute acid or dilute base", "format": "physicochemical", "conditions": "dilute acid, or dilute base at 37° C. over one week"}, "[3]": {"test_system": "human amyloid-beta (Aβ)-induced injury", "experiment": "AD-relevant mouse model of human Aβ-induced injury (Aβ infusion model)", "format": "in vivo", "conditions": "hippocampus, […] oral once daily for 2 weeks, dihydrochloride salt", "procedure": "The efficacy of Minozac in an AD-relevant mouse model of human amyloid-beta (Aβ)-induced injury (infusion of human Aβ peptide) was determined. Briefly, C57BL/6 mice (n=5-10 mice per group) were subjected to either vehicle (Control) or human oligomeric Aβ1-42 intracerebroventricular (ICV) infusion for four weeks. […] Beginning at day 50 after the start of Aβ ICV infusion, the Y-maze test of spontaneous alternation was used to evaluate hippocampus-dependent spatial learning deficits. At day 60 after the start of Aβ ICV infusion, mice were sacrificed, perfused with buffer containing a protease inhibitor cocktail, and the brain was harvested. The brain was longitudinally bisected and the right half of the brain used for histology. The hippocampus was dissected from the left half of the brain. The levels of IL-1β, TNFα, S100B and synaptophysin were measured in hippocampal extracts by ELISA, and postsynaptic density-95 ([…]) levels were determined by Western blotting. Immunohistochemical detection of GFAP-positive astrocytes and F4/80 positive microglia was performed on 10 μm sections."}, "in vivo": {"experiment": "in vivo", "procedure": "Plasma samples obtained from dog pharmacokinetic studies were analyzed using reversed phase HPLC with tandem mass spectrometric detection. Briefly, aliquots of internal standard (200 μl of 200 ng/ml) were added to protein precipitation plates (Sirocco protein precipitation plates, Waters Corporation, Milford, Mass., USA), followed by addition of plasma sample to the plate (50 μl). The plate was shaken for 3 minutes, and then a vacuum (maximum of −10 mm Hg) was applied to the plate for 3 minutes. Extract (75 μl) was transferred into a 2 ml 96-well plate, and to each sample was added 1425 μl of Eluent A (95:5:0.1 MilliQ water:acetonitrile:formic acid). 10 μl was injected onto the reverse phase column (ODS C18; 4×2 mm i.d.; Phenomenex, Torrance, USA). The mobile phase was set to 300 μl/min and eluate by mass spectrometry (APT 5000, Applied Biosystems). Calibration standards were processed along with the samples, and the concentration of Minozac [2-(4-(4-methyl-6-phenylpyridazin-3-yl)piperazin-1-yl)pyrimidine dihydrochloride salt] determined using a regression equation. […] The internal standard was compound code MW01-8-064WH (chemical name: 4-methyl-3-phenyl-6-((4-pyrimidin-2-yl)piperazin-1-yl)pyridazine).\nThe pharmacokinetics of Minozac was determined at 2.5 mg/kg following oral administration by gavage of an aqueous solution.\nIntravenous dosing was also carried out at 2.5 mg/kg, but with drug in a 0.9% saline solution.\nThe pharmacokinetics were determined following oral dosing with a neutralized propylene glycol formulation (FIG. 6) and with filled gelatin capsules at a single dose of 2.5 mg/kg (FIG. 7)."}, "physchem": {"experiment": "physchem", "conditions": "37 °C, water, aqueous solubility"}, "LPS inflammation model": {"test_system": "LPS inflammation model", "experiment": "Systemic proinflammatory cytokine expression after LPS challenge", "format": "in vivo, mouse", "conditions": "15 mg/kg orally for 14 days, LPS challenge day 15, serum at 6 hours", "procedure": "The effect of Minozac on the systemic expression of proinflammatory cytokines was determined. Briefly, saline (0.9% NaCL) or Minozac (15 mg/kg) was administered orally for 14 days. Mice were challenged with LPS at the 15th day. Mice were sacrificed at 6 hours after LPS challenge and blood harvested for serum. The levels of cytokines TNFα and […] in the serum were measured using the Meso-scale Discovery system according to manufacturer's instructions. The data for TNFα and IL-1β are shown in FIG. 4 as percent of the level observed in the saline treated mice."}, "[4]": {"experiment": "In vitro metabolic stability in rat liver microsomes", "format": "in vitro ADME", "conditions": "5 μM or 25 μM, 10 or 30 min", "procedure": "(§1) In particular FIG. 3 are bar graphs showing that MW01-9-034WH has improved metabolic stability in rat (A) and human (B) liver microsome incubations compared to minaprine. […] Extracts were prepared, and the amount of compound remaining was analyzed by HPLC using internal standards for recovery."}, "[5]": {"experiment": "In vitro metabolic stability in human liver microsomes", "format": "in vitro ADME", "conditions": "5 μM or 25 μM, 10 or 30 min", "procedure": "as §1"}, "[6]": {"experiment": "PK assessment in mice, plasma and brain after single oral dose", "conditions": "C57BL/6, mouse"}},
  "note": "Entries after “also recorded” stand apart in the source; their conditions may differ. Like-named read-outs stand apart in the source and are kept apart here.",
  "data": [
    {"compound": "c1ccc(-c2cc(-c3ccccc3)c(N3CCN(c4ncccn4)CC3)nn2)cc1", "note": "[Compound 1, 4,6-diphenyl-3-(4-pyrimidin-2-ylpiperazin-1-yl)pyridazine]", "values": [
      {"measurement": "IC50", "setting": "NO production", "value": "> 25", "unit": "µM"},
      {"measurement": "logP", "setting": "[1]; octanol/water", "value": 2.3}
    ]},
    {"compound": "Cc1cc(-c2ccccc2)nnc1N1CCN(c2ncccn2)CC1", "note": "[Compound 5, 4-methyl-6-phenyl-3-(4-pyrimidin-2-ylpiperazin-1-yl)pyridazine]", "values": [
      {"measurement": "selective suppression of IL-1 production compared to NO production", "setting": "IL-1β production", "value": "retained selective suppression"},
      {"measurement": "IC50", "setting": "NO production", "value": "> 25", "unit": "µM"}
    ]},
    {"compound": "Cc1cc(-c2ccccc2)nnc1N1CCN(c2ncccn2)CC1.Cl.Cl", "note": "[Compound 6]", "values": [
      {"measurement": "selective suppression of IL-1 production compared to NO production", "setting": "IL-1β production", "value": "lost selectivity"}
    ]},
    {"compound": "Cc1cc(-c2ccccc2)nnc1N1CCN(C)CC1", "note": "[Compound 11]", "values": [
      {"measurement": "activity (suppression of proinflammatory cytokine production in glia)", "setting": "IL-1β production", "value": "loss of activity; also recorded: diminution of activity"}
    ]},
    {"compound": "Cc1cc(-c2ccccc2)nnc1N1CCN(c2ncccn2)CC1.Cl.Cl", "note": "[Compound 16, 2-(4-(4-methyl-6-phenylpyridazin-3-yl)piperazin-1-yl)pyrimidine dihydrochloride salt]", "values": [
      {"measurement": "loss of material (chemical stability)", "setting": "[2]", "value": "less than 10%"},
      {"measurement": "number of activated F4/80-positive microglia", "setting": "[3]", "value": "reduced"},
      {"measurement": "number of activated F4/80-positive microglia", "setting": "[3]; listed as MW01-9-034WH", "value": "decreases"},
      {"measurement": "number of activated F4/80-positive microglia", "setting": "[3]; listed as Minozac", "value": "reduced"},
      {"measurement": "Vd", "setting": "in vivo; Beagle, dog, iv, […], Vss", "value": "44.5 ± 10.3", "unit": "L"},
      {"measurement": "Vd", "setting": "in vivo; Beagle, dog, iv, […], Vz", "value": "95.1 ± 43.6", "unit": "L"},
      {"measurement": "half-life", "setting": "in vivo; in vivo, iv, […]", "value": 4.49, "unit": "h"},
      {"measurement": "bioavailability", "setting": "in vivo; in vivo, po, […]", "value": 23, "unit": "%"},
      {"measurement": "half-life", "setting": "in vivo; in vivo, po, […]", "value": 2.1, "unit": "h"},
      {"measurement": "bioavailability", "setting": "in vivo; male, Beagle, dog", "value": 16, "unit": "%"},
      {"measurement": "bioavailability", "setting": "in vivo; male, Beagle, dog, po", "value": 21, "unit": "%"},
      {"measurement": "half-life", "setting": "in vivo; male, Beagle, dog, po, […], t1/2", "value": 1.47, "unit": "h"},
      {"measurement": "solubility", "setting": "physchem", "value": "> 322", "unit": "mg/mL"},
      {"measurement": "systemic (serum) expression of IL-1β", "setting": "LPS inflammation model", "value": "no effect"},
      {"measurement": "systemic (serum) expression of TNFα", "setting": "LPS inflammation model", "value": "no effect"},
      {"measurement": "metabolic stability, compound remaining", "setting": "[4]", "value": "stable even after 30 min incubation"},
      {"measurement": "metabolic stability, compound remaining", "setting": "[5]", "value": "stable even after 30 min incubation"},
      {"measurement": "logP", "setting": "[1]", "value": 2.29},
      {"measurement": "logP", "setting": "[1]; octanol/water", "value": 2.7},
      {"measurement": "Tmax", "setting": "[6]; brain", "value": "~0.25", "unit": "h"},
      {"measurement": "half-life", "setting": "[6]; brain", "value": "~0.75", "unit": "h"},
      {"measurement": "half-life", "setting": "[6]; plasma", "value": "~0.25", "unit": "h"}
    ]},
    {"compound": "Cc1cc(-c2ccccc2)nnc1NCCN1CCOCC1", "note": "[minaprine, reference compound]", "values": [
      {"measurement": "metabolic stability, compound remaining", "setting": "[4]", "value": "majority of minaprine is gone by 10 min"},
      {"measurement": "metabolic stability, compound remaining", "setting": "[5]", "value": "majority of minaprine is gone by 10 min"}
    ]}
  ]
}
